Molecules are shown by their SMILES. ± gives the expanded uncertainty stated by the source.

A short description of data set [1]: refractive index (Na D-line) (dimensionless). As to conditions: 298.15 K; 101.33 kPa; Liquid; Automatic Refractometer.
For data set [2] the following is noted: 298.15 K; 101.33 kPa; Liquid; Vibrating tube method.
Data set [3] in a line: xn = mol fraction of the nth substance listed. As to conditions: 298.15 K, 101.3 kPa, Liquid, Vibrating tube method.

For orientation: refractive index means the speed of light in vacuum divided by its phase velocity in the sample. Usually mass density stands for the mass of a sample divided by its volume. Consider `CCOS(=O)(=O)[O-].CC[n+]1cccc(C)c1` [1-ethyl-3-methylpyridinium ethylsulfate], for which the refractive index in data set [1] came out at 1.50591 ± 0.00022. Also, in data set [2], the mass density was 1219.61 ± 0.42 kg/m3.

On to `CCCCCCC` [heptane] + Cc1ccccc1, for which, in data set [3] (x1 = 1), the mass density stood at 679.56 ± 0.2 kg/m3.

Take `CCCCCCCCC` [nonane] + Cc1ccccc1: the mass density in data set [3] (x1 = 0.096) came out at 838.74 ± 0.27 kg/m3; in data set [3] (x1 = 0.1942) it was 817.91 ± 0.25 kg/m3; in data set [3] (x1 = 0.2952) it was 799.09 ± 0.24 kg/m3; in data set [3] (x1 = 0.3954) it was 782.63 ± 0.23 kg/m3; in data set [3] (x1 = 0.4954), 768.02 ± 0.23 kg/m3; in data set [3] (x1 = 0.5929), 755.35 ± 0.23 kg/m3. Besides, the mass density in data set [3] (x1 = 0.6939) came out at 743.54 ± 0.24 kg/m3; in data set [3] (x1 = 0.7939), 732.97 ± 0.25 kg/m3; in data set [3] (x1 = 0.8947) it was 723.28 ± 0.26 kg/m3; in data set [3] (x1 = 1), 713.99 ± 0.26 kg/m3.

In the case of `CCCCCCCC` [octane] + Cc1ccccc1, the mass density was 838.13 ± 0.27 kg/m3 in data set [3] (x1 = 0.0982); 816.31 ± 0.26 kg/m3 in data set [3] (x1 = 0.1977); 796.62 ± 0.24 kg/m3 in data set [3] (x1 = 0.2975); 778.64 ± 0.23 kg/m3 in data set [3] (x1 = 0.3983); 761.92 ± 0.23 kg/m3 in data set [3] (x1 = 0.5005); 747.35 ± 0.22 kg/m3 in data set [3] (x1 = 0.5988). In addition, the mass density is 733.63 ± 0.22 kg/m3 in data set [3] (x1 = 0.699), 721.31 ± 0.22 kg/m3 in data set [3] (x1 = 0.7966), 709.92 ± 0.22 kg/m3 in data set [3] (x1 = 0.8955) and 698.6 ± 0.19 kg/m3 in data set [3] (x1 = 1).

For the molecule `Cc1ccccc1` [toluene] + CCCCCCC, the mass density in data set [3] (x2 = 0) is 862.17 ± 0.14 kg/m3; in data set [3] (x2 = 0.0974) it was 838.12 ± 0.28 kg/m3; in data set [3] (x2 = 0.1996), 814.81 ± 0.27 kg/m3; in data set [3] (x2 = 0.2997) it was 793.52 ± 0.26 kg/m3; in data set [3] (x2 = 0.397), 774.31 ± 0.25 kg/m3; in data set [3] (x2 = 0.497) it was 755.94 ± 0.24 kg/m3. Further, the mass density in data set [3] (x2 = 0.5961) is on record as 738.9 ± 0.24 kg/m3; in data set [3] (x2 = 0.6967), 722.76 ± 0.24 kg/m3; in data set [3] (x2 = 0.7958), 707.78 ± 0.24 kg/m3; in data set [3] (x2 = 0.8973), 693.24 ± 0.23 kg/m3.

For `Cc1ccccc1` [toluene] + CCCCCCCC, the mass density in data set [3] (x2 = 0) was 862.17 ± 0.14 kg/m3.

In the case of `Cc1ccccc1` [toluene] + CCCCCCCCC, the mass density in data set [3] (x2 = 0) worked out at 862.17 ± 0.14 kg/m3.

Source of the values: the NIST ThermoML archive (doi:10.1016/j.jct.2010.01.008).
